According to article PMC10718076, “1,2-Disubstituted bicyclo[2.1.1]hexanes as saturated bioisosteres of ortho-substituted benzene” (Chemical Science, 2023):
Values after ≈ are worked out from the molar mass of the structure shown. Like-named read-outs stand apart in the source and are kept apart here.

Key:
[1] = test system: Aspergillus niger (strain VURV-F 822); assay: Antifungal disk diffusion method; type: cell-based; settings: for zone of inhibition at 4 µg/mL: Concentration 0.004 mg/mL, Boscalid, Bixafen marked st; for zone of inhibition at 4 µg/mL / zone of inhibition at 8 µg/mL / zone of inhibition at 16 µg/mL / zone of inhibition at 30 µg/mL / zone of inhibition at 60 µg/mL: 0 = absence of antifungal activity; for zone of inhibition at 4 µg/mL / zone of inhibition at 60 µg/mL: Fluxapyroxad; for zone of inhibition at 4 µg/mL / zone of inhibition at 8 µg/mL / zone of inhibition at 16 µg/mL / zone of inhibition at 30 µg/mL / zone of inhibition at 60 µg/mL / zone of inhibition at 120 µg/mL / zone of inhibition at 250 µg/mL / zone of inhibition at 500 µg/mL / zone of inhibition at 1000 µg/mL / zone of inhibition at 2000 µg/mL: read-out: Diameter of inhibition zone; for zone of inhibition at 8 µg/mL: Concentration 0.008 mg/mL; for zone of inhibition at 16 µg/mL: Concentration 0.016 mg/mL; for zone of inhibition at 30 µg/mL: Concentration 0.03 mg/mL; for zone of inhibition at 30 µg/mL / zone of inhibition at 60 µg/mL: (±)-29 marked st; for zone of inhibition at 60 µg/mL: Concentration 0.06 mg/mL, Bixafen; for zone of inhibition at 120 µg/mL: Concentration 0.12 mg/mL, (±)-28 marked st (static growth); for zone of inhibition at 250 µg/mL: Concentration 0.25 mg/mL, (±)-28 marked st (static growth, secondary growth of mycelium); for zone of inhibition at 500 µg/mL: Concentration 0.5 mg/mL; for zone of inhibition at 500 µg/mL / zone of inhibition at 1000 µg/mL / zone of inhibition at 2000 µg/mL: 10 μl per disk; for zone of inhibition at 1000 µg/mL: Concentration 1 mg/mL; for zone of inhibition at 2000 µg/mL: Concentration 2 mg/mL
Protocol: Antifungal activity of the synthetic compounds using disk diffusion methods The compounds were tested for plant pathogens Aspergillus niger (strain VURV-F 822), which was received from Culture collection of microorganisms of Crop Research Institute (Prague, Czech […]
The synthetic compounds' antifungal activity was evaluated using a disk diffusion assay for testing filamentous fungi (CLSI M51-A) and broth microdilution antifungal susceptibility testing (EUCAST E.DEF 7.3.1; CLSI M38-A2)
[CLSI M51-A. Method for Antifungal Disk Diffusion Susceptibility Testing of Nondermatophyte Filamentous Fungi; Approved Guideline.CLSI document M51-A. Wayne, PA:
Clinical and Laboratory Standards Institute; 2010. This method is standardized for Altenaria, Aspergillus, Bipolaris, Fusarium, order Mucorales, etc.]
[CLSI M38-A2. 2008. Reference method for broth dilution antifungal susceptibility testing of filamentous fungi, 2nd ed Approved standard M38 -A2 Clinical and Laboratory Standards Institute, […]
Antifungal disk diffusion method
The solutions of fungicides and their analogues were diluted in dimethyl sulfoxide (DMSO) to […]
mg/mL for each test component. Sterile paper disks (ASPECT, Ukraine) were soaked with 10 μl of a solution of the appropriate fungicide from the highest concentration to the lowest.
The fungal strains were cultured on Petri dishes with Saburo dextrose agar (Condalab, Spain) and incubated at 25 °C for 5 days. Sterile Dulbecco's phosphate -buffered saline (DPBS) with 0,1 % Tween 20 was used to cover colonies of fungus for obtained conidia l suspension. Suspension of conidia was adjusted to inoculums 2×10^5 conidia/mL by sterile DPBS.
For antifungal disk diffusion test we used square Petri dishes (FALCON A Corning Brand, USA). The conidial suspension (0.5 mL) was added to Petri dishes with Saburo dextrose agar. The suspension was evenly distributed over the surface of the nutrient medium with a glass spatula.
After the surface of the inoculated medium was dry, the disks with different concentrations of testing compounds were added to the Petri dishes. Each compound was tested in triplicate at different concentrations. Growth control was a disk with 10 μl of DMSO, which was used for test […]
Petri dishes incubated at 25 °C for 72 h. The test compounds at known concentrati on into contact with an inoculated medium then exert a growth-inhibiting effect then a clear zone (the zone of […]
inhibition) appears around the test product. The diameter of a clear zone around the well is […]
If the fungal strain is susceptible to the antifungal agent, then a zone of inhibition appears on the agar plate. If it is resistant to the test compound, then no zone is evident. The size of the zone of inhibition is usually related to the level of antifungal activity present in the compound – a larger […]
The growth rate of all strains for each concentration of test compounds was determined visually and compared with the growth of control.
Broth microdilution antifungal susceptibility testing
A 96-well CELLSTAR plate (sterile, flat-bottomed, polystyrene, transparent) was used to determine MIC by broth microdilution method. Also, dabble straight RPMI-1640 medium with 2% glucose (2x RPMI 2%G) was used for this method. Spore suspension for plate inoculation was prepared according to the method described above for the disc diffusion method.
The each well in the plate contained 49 μl of medium (2x RPMI 2%G), 50 μl of inoculum (prepared in DPBS) and 1 μl of the stock solution of the test substance. Positive control wells contained 50 μl medium and 50 μl inoculum, and sterile control wells contained 50 μl medium and […]
To determine the MIC by the microdilution method, a series of stock solutions of fungicides and their analogues in DMSO with the following concentrations were prepared: 3.2 mg/mL, 1.6 mg/mL, […]
1 μl of the stock solutions of the test substances were added to each well to obtain the following […]
Immediately after adding all the components to the plates, the optical density was measured at […]

[2] = Metabolic stability in human liver microsomes; settings: both; for remaining at 40 min, 2 µM: Mean of 2, 40 min; for remaining at 25 min, 2 µM: Mean of 2, 25 min
[3] = Kinetic solubility in phosphate-buffered saline, pH 7.4; type: physicochemical; settings: 25 °C, kinetic from dmso stock, phosphate-buffered saline; for solubility kinetic at 2 h: aqueous buffer, pH 7.4, read-out: Sol.: experimental kinetic solubility; for solubility at 2 h: pH 7.4, aqueous buffer
Protocol: Analysis of Aqueous Solubility […]
compound (Ondansetron) were assessed for kinetic solubility in phosphate -buffered saline, pH 7.4.
Phosphate buffered saline, pH 7.4 (Sigma -Aldrich, USA; Cat #P3813) […]
MultiScreen HTS 96 Well Filter Plates (Millipore, Ireland; Cat # MSSLBPC10) […]
Matrix Multichannel Electronic Pipette 2-125 μL, 5-250 μL, 15-1250 μL (Thermo Scientific, USA; […]
Vacuum pump (Millipore, USA; Model # XX5500000)
The measurements were performed using SpectraMax Plus reader in UV -Vis mode. Acquisition and […]
The measurements were performed using SpectraMax Paradigm reader in UV-Vis mode.
Acquisition and analysis of the data were performed using SoftMax Pro v.5.4 (Molecular Devices) […]
Kinetic solubility assay was performed according to the Enamine’s aqueous solubility SOP. Briefly, using a 20 mM stock solution of the compound in 100% DMSO dilutions were prepared to a theoretical concentration of 400 μM in duplicates in phosphate-buffered saline pH 7.4 […]
compound dilutions in PBS were further allowed to equilibrate at 25 °C on a thermostatic shaker for two hours and then filtered through HTS filter plates using a vacuum manifold. The filtrates of test compounds were diluted 2-fold with acetonitrile with 2% DMSO before measuring.
In parallel, compound dilutions in 50% acetonitrile/PBS were prepared to theoretical concentrations […]
calibration curves. Ondansetron was used as reference compound to control proper assay performance. 200 μl of each sample was transferred to 96-well plate and measured in 230-550 nm range with 5 nm step. The effective range of this assay is approximately 2-400 μM and the […]
The concentrations of compounds in PBS filtrate are calculated using a dedicated Microsoft Excel calculation script. Proper absorbance wavelengths for calculations are selected for each compound manually based on absorbance maximums (absolute absorbance unit values for the minimum and maximum concentration points within the 0 – 3 OD range). Each final dataset is visually evaluated by the operator, and goodness of fit (R2) is calculated for each calibration curve. […]
samples were diluted 2-fold with acetonitrile containing internal standard and were analyzed using the HPLC system coupled with a tandem mass spectrometer. The effective range of this assay is […]

[4] = human liver microsomes (pooled), pH 7.4
[5] = liver microsomes (pooled), pH 7.4, % Remaining without cofactor, no NADPH cofactor, Table S6, 1st batch
[6] = liver microsomes (pooled), pH 7.4, % Remaining, Mean of 2, 7 min, Table S6, 1st batch
[7] = liver microsomes (pooled), pH 7.4, % Remaining, Mean of 2, 15 min, Table S6, 1st batch
[8] = liver microsomes (pooled), pH 7.4, % Remaining, Table S6, 1st batch
[9] = liver microsomes (pooled), pH 7.4, kel, Table S6, 1st batch
[10] = liver microsomes (pooled), pH 7.4, t1/2, Table S6, 1st batch
[11] = Table S2, 2st batch, read-out: PBS solubility, pH 7.4, Incubation 1
[12] = Table S2, 2st batch, read-out: PBS solubility, pH 7.4, Incubation 2
[13] = Table S2, 2st batch, read-out: PBS solubility, pH 7.4, Mean
[14] = Table S5, injection 1, octanol/PBS pH 7.4
[15] = Table S5, injection 2, octanol/PBS pH 7.4
[16] = Table S5, injection 3, octanol/PBS pH 7.4
[17] = human liver microsomes (pooled), pH 7.4, % Remaining, Table S9, 4st batch

Row | SMILES | zone of inhibition at 4 µg/mL [1] | zone of inhibition at 8 µg/mL [1] | zone of inhibition at 16 µg/mL [1] | zone of inhibition at 30 µg/mL [1] | zone of inhibition at 60 µg/mL [1] | zone of inhibition at 120 µg/mL [1] | zone of inhibition at 250 µg/mL [1] | zone of inhibition at 500 µg/mL [1] | zone of inhibition at 1000 µg/mL [1] | zone of inhibition at 2000 µg/mL [1] | microsomal CLint at 2 μM [2, 4] | remaining at 40 min, 2 µM [2, 5] | remaining at […], 2 µM [2, 6] | remaining at […], 2 µM [2, 7] | remaining at 25 min, 2 µM [2, 8] | remaining at 40 min, 2 µM [2, 8] | solubility kinetic at 2 h [3] | D [14] | D [15] | D [16] | further results
1 | O=C(NC1CC2CC1(c1ccc(Cl)cc1)C2)c1cccnc1Cl (stereo not shown) [Compound 28] | 0 mm | 0 mm | 0 mm | 0 mm | 0 mm | 9 ± 0.5 mm | 7.5 ± 0.5 mm | 10.5 ± 1.5 mm | 13.8 ± 0.88 mm | 15.5 ± 0.5 mm | 29 µL/min/mg | 116% | 88% | 82% | 72% | 61% | 35 µM (≈ 12.2 µg/mL) | 3.84E+03 | 3.81E+03 | 3.49E+03 | k el at 2 µM [2, 9]: 0.0002 s⁻¹; half-life at 2 µM [2, 10]: 57.6 min; solubility at 2 h [3, 11]: 35 µM (≈ 12.2 µg/mL); solubility at 2 h [3, 12]: 34 µM (≈ 11.8 µg/mL); solubility at 2 h [3, 13]: 35 µM (≈ 12.2 µg/mL)
2 | Cn1cc(C(=O)Nc2ccc(F)cc2-c2ccc(Cl)c(Cl)c2)c(C(F)F)n1 [Bixafen, bixafen] | 9 ± 2 mm | 15.8 ± 1.25 mm | 14.5 ± 1 mm | 20.2 ± 2.25 mm | 20.5 ± 1.75 mm | 27 ± 1 mm | 32 ± 2.5 mm | 32.8 ± 1.75 mm | 35.2 ± 1.4 mm | 38 ± 1 mm | ~10 µL/min/mg | – | – | – | – | – | 30 µM (≈ 12.4 µg/mL) | 1.23E+04 | 1.53E+04 | 2.30E+04 | MIC ([1]; disk diffusion, small zones of inhibition with secondary mycelial growth, read-out: minimum inhibitory concentration): 4 µg/mL (≈ 9.66 µM); remaining at 40 min, 2 µM ([2]; human liver microsomes (pooled), pH 7.4, % Remaining without cofactor, no NADPH cofactor, Table S9, 4st batch): 101%; remaining at […], 2 µM ([2]; human liver microsomes (pooled), pH 7.4, % Remaining, Mean of 2, 7 min, Table S9, 4st batch): 105%; remaining at […], 2 µM ([2]; human liver microsomes (pooled), pH 7.4, % Remaining, Mean of 2, 15 min, Table S9, 4st batch): 97%; remaining at 25 min, 2 µM [2, 17]: 93%; remaining at 40 min, 2 µM [2, 17]: 87%; k el at 2 μM ([2]; human liver microsomes (pooled), pH 7.4, kel, Table S9, 4st batch, * approximate due to high stability): ~6.67e-05 s⁻¹; half-life at 2 µM ([2]; human liver microsomes (pooled), pH 7.4, t1/2, Table S9, 4st batch, * approximate due to high stability): ~161 min; solubility at 2 h ([3]; Table S4, 4nd batch, read-out: PBS solubility, pH 7.4, Incubation 1): 29 µM (≈ 12 µg/mL); solubility at 2 h ([3]; Table S4, 4nd batch, read-out: PBS solubility, pH 7.4, Incubation 2): 31 µM (≈ 12.8 µg/mL); solubility at 2 h ([3]; Table S4, 4nd batch, read-out: PBS solubility, pH 7.4, Mean): 30 µM (≈ 12.4 µg/mL)
3 | Cn1cc(C(=O)NC2CC3CC2(c2ccc(Cl)c(Cl)c2)C3)c(C(F)F)n1 (stereo not shown) [Compound 29] | 0 mm | 0 mm | 0 mm | 3.5 ± 0.5 mm | 6.5 ± 1 mm | 8.75 ± 1.25 mm | 12 ± 0.5 mm | 12.5 ± 1.5 mm | 16.2 ± 1.25 mm | 23.5 ± 2 mm | – | 106% | 83% | 73% | 67% | 54% | 4 µM (≈ 1.6 µg/mL) | 1.26E+04 | 1.38E+04 | 1.92E+04 | microsomal CLint at 2 µM ([2]; liver microsomes (pooled), pH 7.4): 35 µL/min/mg; k el at 2 µM [2, 9]: 0.00025 s⁻¹; half-life at 2 µM [2, 10]: 47.4 min; solubility at 2 h [3, 11]: 4 µM (≈ 1.6 µg/mL); solubility at 2 h [3, 12]: 4 µM (≈ 1.6 µg/mL); solubility at 2 h [3, 13]: 4 µM (≈ 1.6 µg/mL)
